Experimental data taken from PubChem BioAssay AID2060486 (Molecular Pharmacology Branch, DTP, NCI, 2025).

System: IGROV1 complex spheroids (HUVEC, MSC), viability % test/control
Assay: Anticancer human tumor IGROV1 cell line growth inhibition [GQUAD];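 further: spheroids exposed to compounds for 7 days before readout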
Details: for IC50: curve of first compound; for viability, T/C: stronger effect = lower value
Text: DNA G-quadruplex Stabilizer Agents in Combinations in Complex Spheroids
A high-throughput screen of multi-cell type tumor spheroids was designed to identify active combinations of DNA G-quadruplex stabilizer agents and targeted small molecules. Complex spheroids include a stromal component modeled by human endothelial cells (HUVEC) and fibroblasts modeled by human mesenchymal stem cells (MSCs). The concentration ranges selected for each drug and investigational agent were based upon clinically achievable concentrations if the clinical Cmax of the agent was known.
Compounds. The drugs and investigational agents: pidnarulex (CX-5461; NSC782164), APTO-253 (NSC789042), BRACO-19 (NSC847499), peposertib (NSC802822), ceralasertib (NSC780249), elimusertib (NSC800525), camonsertib (NSC841442), AZD-1390 (NSC803789), olaparib (NSC753686), talazoparib (NSC767125), ART-558 (NSC835418), sotorasib (NSC818433), MRTX-1133 (NSC836407), SN-38 (NSC673596), topotecan (NSC609699), etoposide (NSC141540), doxorubicin (NSC123127), gemcitabine (NSC613327), 5-fluorouracil (NSC19893), paclitaxel (NSC125973), vemurafenib (NSC761431), panobinostat (NSC761190), R-306465 (JNJ-16241199; NSC773264), adavosertib (NSC754352), TP-3654 (NSC805149), carboplatin (NSC241240), KSQ-4279 (NSC840948), and staurosporine (NSC755774) were obtained from the National Cancer Institute (NCI) Developmental Therapeutics Program Chemical Repository (34). The FDA-approved anticancer drug set is available from the NCI Developmental Therapeutics Program. […] The stock solutions were prepared in dimethyl sulfoxide (DMSO, Sigma-Aldrich, St. Louis, MO, cat. D2650) at 800-fold the tested concentration and stored at -70 degrees C prior to their use. All drugs and investigational agents were tested over a range starting from a high concentration at or near the clinical Cmax and decreasing in half-log increments. If the clinical Cmax for an agent had not been determined, the highest concentration tested was 10 microM.
2.3 Cell Culture. All cells were maintained in an incubator at 37 degrees C and 5% CO2 with 95% humidity. The PDC lines were cultured according to standard operating procedures established by the NCI PDMR. All PDCs were thawed and cultured in Matrigel-coated flasks prepared with a working solution of 1X Ham's F-12 nutrient mix, without supplementation (Invitrogen, cat. 11765054), 100 U/mL penicillin-streptomycin (Invitrogen, cat. 15140122), and 2.5% Matrigel (Corning Inc., cat. 354248) for the first three passages. The 857933-349-R-J2-PDC line was cultured in 6C/Colon 1B media, which includes advanced DMEM/F-12 (Thermo Fisher Scientific, cat. 12634028), 10 mM HEPES (Thermo Fisher Scientific, cat. 15630080), 1X GlutaMAX supplement (Thermo Fisher Scientific, cat. 35050061), 0.1 mg/mL primocin (InvivoGen, cat. ant-pm-2), 10% defined fetal bovine serum, heat inactivated (HyClone Laboratories Inc., cat. SH30070.03HI), 50% L-WRN conditioned media (ATCC, cat. CRL-3276), 1.25 mM N-Acetyl-L-cysteine (Sigma-Aldrich, cat. A9165), 10 mM nicotinamide (Sigma-Aldrich, cat. N0636), 1X B-27 supplement (Thermo Fisher Scientific, cat. 17504044), 1X N-2 supplement (Thermo Fisher Scientific, cat. 17502048), 10 microM Y-27632 dihydrochloride (Tocris Bioscience, cat. 1254), and 50 ng/mL human EGF recombinant protein (Thermo Fisher Scientific, cat. PHG0311). The 485176-168-R4-J1-PDC line was cultured in Panc media, which includes all 6C/Colon 1B media components plus 100 ng/mL human FGF-10 (Thermo Fisher Scientific, cat. 100-26), 500 nM SB-431542 (Selleckchem, cat. S1067), and gastrin (Tocris, cat. 3006).
[…]

[1] = second compound 0.0316 µM, first compound 0.0316 µM
[2] = second compound 0.0316 µM, first compound 0.1 µM
[3] = second compound 0.0316 µM, first compound 0.316 µM
[4] = second compound 0.0316 µM, first compound 1 µM
[5] = second compound 0.0316 µM, first compound 3.16 µM
[6] = second compound 0.0316 µM, first compound 10 µM
[7] = second compound 0.1 µM, first compound 0.0316 µM
[8] = second compound 0.1 µM, first compound 0.1 µM
[9] = second compound 0.1 µM, first compound 0.316 µM
[10] = second compound 0.1 µM, first compound 1 µM
[11] = second compound 0.1 µM, first compound 3.16 µM
[12] = second compound 0.1 µM, first compound 10 µM
[13] = second compound 0.316 µM, first compound 0.0316 µM
[14] = second compound 0.316 µM, first compound 0.1 µM
[15] = second compound 0.316 µM, first compound 0.316 µM
[16] = second compound 0.316 µM, first compound 1 µM
[17] = second compound 0.316 µM, first compound 3.16 µM
[18] = second compound 0.316 µM, first compound 10 µM
[19] = second compound 1 µM, first compound 0.0316 µM
[20] = second compound 1 µM, first compound 0.1 µM
[21] = second compound 1 µM, first compound 0.316 µM
[22] = second compound 1 µM, first compound 1 µM
[23] = second compound 1 µM, first compound 3.16 µM
[24] = second compound 1 µM, first compound 10 µM
[25] = second compound 3.16 µM, first compound 0.0316 µM
[26] = second compound 3.16 µM, first compound 0.1 µM
[27] = second compound 3.16 µM, first compound 0.316 µM
[28] = second compound 3.16 µM, first compound 1 µM
[29] = second compound 3.16 µM, first compound 3.16 µM
[30] = second compound 3.16 µM, first compound 10 µM
[31] = second compound 10 µM, first compound 0.0316 µM
[32] = second compound 10 µM, first compound 0.1 µM
[33] = second compound 10 µM, first compound 0.316 µM
[34] = second compound 10 µM, first compound 1 µM
[35] = second compound 10 µM, first compound 3.16 µM
[36] = second compound 10 µM, first compound 10 µM

For Nc1ccn(C2OC(CO)C(O)C2(F)F)c(=O)n1 (centres undefined) + Cc1[nH]c2ccc(F)cc2c1-c1nc2c3cccnc3c3ncccc3c2[nH]1, the IC50 (second compound 0.0316 µM) was less than 31.6 nM, the IC50 (second compound 0.1 µM) was less than 31.6 nM and the IC50 (second compound 0.316 µM) was less than 31.6 nM. It also gave an IC50 (second compound 1 µM) of less than 31.6 nM, an IC50 (second compound 3.16 µM) of less than 31.6 nM and an IC50 (second compound 10 µM) of less than 31.6 nM. The viability, T/C [1] was 10.5%, the viability, T/C [2] was 6.29% and the viability, T/C [3] was 5.85%. The viability, T/C [4] was 6.52%, the viability, T/C [5] was 6.69% and the viability, T/C [6] was 5.57%. It also gave a viability, T/C [7] of 18%, a viability, T/C [8] of 6.64% and a viability, T/C [9] of 5.87%. It also gave a viability, T/C [10] of 5.31%, a viability, T/C [11] of 5.55% and a viability, T/C [12] of 6.59%. It also gave a viability, T/C [13] of 11.5%, a viability, T/C [14] of 6.38% and a viability, T/C [15] of 6.31%. The viability, T/C [16] was 6.72%, the viability, T/C [17] was 6.12% and the viability, T/C [18] was 5.22%. For the same molecule, the viability, T/C [19] was 4.26%, the viability, T/C [20] was 5% and the viability, T/C [21] was 3.88%. It also gave a viability, T/C [22] of 3.77%, a viability, T/C [23] of 3.84% and a viability, T/C [24] of 3.25%. The viability, T/C [25] was 5.06%, the viability, T/C [26] was 4.43% and the viability, T/C [27] was 3.62%. The viability, T/C [28] was 4.5%, the viability, T/C [29] was 4.02% and the viability, T/C [30] was 2.81%. The viability, T/C [31] was 3.58%, the viability, T/C [32] was 4.69% and the viability, T/C [33] was 4.1%. For the same molecule, the viability, T/C [34] was 4.26%, the viability, T/C [35] was 3.44% and the viability, T/C [36] was 2.86%.
O=C(NO)c1cnc(N2CCN(S(=O)(=O)c3ccc4ccccc4c3)CC2)nc1 + Cc1[nH]c2ccc(F)cc2c1-c1nc2c3cccnc3c3ncccc3c2[nH]1 gave an IC50 (second compound 0.0316 µM) of 98.9 nM, an IC50 (second compound 0.1 µM) of 96.2 nM and an IC50 (second compound 0.316 µM) of 81.9 nM. It also gave an IC50 (second compound 1 µM) of less than 31.6 nM, an IC50 (second compound 3.16 µM) of less than 31.6 nM and an IC50 (second compound 10 µM) of less than 31.6 nM. For the same molecule, the viability, T/C [1] was 87.3%, the viability, T/C [2] was 49.5% and the viability, T/C [3] was 12.1%. It also gave a viability, T/C [4] of 0.35%, a viability, T/C [5] of 0.04% and a viability, T/C [6] of 0.07%. It also gave a viability, T/C [7] of 91.5%, a viability, T/C [8] of 47.7% and a viability, T/C [9] of 20.1%. The viability, T/C [10] was 0.3%, the viability, T/C [11] was 0.05% and the viability, T/C [12] was 0.06%. It also gave a viability, T/C [13] of 91.3%, a viability, T/C [14] of 40.6% and a viability, T/C [15] of 17.2%. For the same molecule, the viability, T/C [16] was 0.3%, the viability, T/C [17] was 0.04% and the viability, T/C [18] was 0.05%. The viability, T/C [19] was 2.48%, the viability, T/C [20] was 1.93% and the viability, T/C [21] was 2.47%. For the same molecule, the viability, T/C [22] was 0.07%, the viability, T/C [23] was 0.03% and the viability, T/C [24] was 0.05%. The viability, T/C [25] was 1.55%, the viability, T/C [26] was 1.3% and the viability, T/C [27] was 0.5%. For the same molecule, the viability, T/C [28] was 0.04%, the viability, T/C [29] was 0.05% and the viability, T/C [30] was 0.07%. It also gave a viability, T/C [31] of 1.75%, a viability, T/C [32] of 1.33% and a viability, T/C [33] of 0.92%. For the same molecule, the viability, T/C [34] was 0.07%, the viability, T/C [35] was 0.11% and the viability, T/C [36] was 0.1%.
